Among the data in ChEMBL document CHEMBL1157385, “(Iso)-quinoline alkaloids from fungal fruiting bodies of Cortinarius subtortus” (J Nat Prod, 2008) are inhibition, Activity and EC50 values, retold here.

Assay [1] deals with Colletotrichum coccodes. Briefly: Growth inhibition of Colletotrichum coccodes (Wallr.) S. Hughes at 100 uM after 6 days. The assay is classed as functional, organism-based. The following applies: 144 h.
The test system of assay [2] is Radical scavenging activity. The experiment in a line: Antioxidant activity assessed as DPPH free radical scavenging activity at 1 mM. Type of assay: functional.

Take `O=C(O)c1cc(O)cc2cccnc12`: the inhibition at 100 µM in assay [1] is 71%. Further, in assay [2], the Activity was 15%.

`Oc1cccc2cccnc12` [QUINOSOL] came in with a half-maximal effective concentration (EC50) in assay [1] of 0.19 µM.

Regarding `O=C1O[C@H]([C@@H](O)CO)C(O)=C1O` [ASCORBIC ACID], the EC50 in assay [2] stood at 45 µM.

Regarding `O=C(O)c1cc(O)cc2c(=O)[nH]ccc12`, the Activity in assay [2] worked out at 21%.

For the molecule `Nc1ccnc2c(C(=O)O)cc(O)cc12`, in assay [2], the Activity amounted to 12%.
